According to patent US10494332B2, “Protein tyrosine phosphatases or SHP2 inhibitors and uses thereof” (Indiana University Research and Technology Corporation, priority 2015, dated 2019):
Where “and” joins values, the source holds several entries; their conditions need not be identical. Identical values can stand only once. Like-named read-outs stand apart in the source and are kept apart here.

Key:
[1] = biological target: T1, LMWPTP (Homo sapiens, UniProt P24666); assay: PTP inhibition assay (pNPP); assay type: biochemical
T1 sequence (P24666 1-158): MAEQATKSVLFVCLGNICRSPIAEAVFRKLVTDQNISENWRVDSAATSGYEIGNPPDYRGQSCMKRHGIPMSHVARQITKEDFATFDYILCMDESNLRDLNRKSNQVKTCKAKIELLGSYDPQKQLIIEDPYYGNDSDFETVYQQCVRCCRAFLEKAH

[2] = biological target: PTPμ (Homo sapiens, UniProt P28827); assay: PTP inhibition assay (pNPP)
[3] = biological target: T2, VHX (Homo sapiens, UniProt Q9NRW4); assay: PTP inhibition assay (pNPP); assay type: biochemical; details: pNPP at Km, pH 7.0, 25° C.
T2 sequence (Q9NRW4 1-184): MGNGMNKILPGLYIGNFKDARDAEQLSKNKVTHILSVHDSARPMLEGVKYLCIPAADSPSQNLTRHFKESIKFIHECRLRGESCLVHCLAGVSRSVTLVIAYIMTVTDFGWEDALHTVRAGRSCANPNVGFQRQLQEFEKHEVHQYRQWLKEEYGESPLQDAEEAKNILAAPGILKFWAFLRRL

[4] = biological target: T3, SHP2 (Homo sapiens, UniProt Q06124); assay: SHP2 phosphatase inhibition assay (pNPP); assay type: biochemical; details: pNPP at Km, pH 7.0, 25° C.; read-out: IC50 SHP2
T3 sequence (Q06124 224-528): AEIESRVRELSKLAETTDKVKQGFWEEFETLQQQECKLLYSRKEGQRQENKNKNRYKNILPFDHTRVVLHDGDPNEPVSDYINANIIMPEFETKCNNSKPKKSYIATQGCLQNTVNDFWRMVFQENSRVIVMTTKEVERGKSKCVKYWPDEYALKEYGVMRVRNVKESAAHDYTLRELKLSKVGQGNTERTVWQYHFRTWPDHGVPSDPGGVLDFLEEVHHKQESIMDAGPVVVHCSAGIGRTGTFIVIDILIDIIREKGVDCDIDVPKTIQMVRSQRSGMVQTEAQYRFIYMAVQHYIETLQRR

[5] = biological target: PTPα (Homo sapiens, UniProt P18433); assay: PTP inhibition assay (pNPP); assay type: biochemical
[6] = biological target: TbPTP1 (Trypanosoma brucei brucei, UniProt Q38AT7); assay: PTP inhibition assay (pNPP); assay type: biochemical; details: pNPP at Km, pH 7.0, 25° C.; read-out: IC50 TbPTP1
[7] = biological target: PTPβ (Homo sapiens, UniProt P23467); assay: PTP inhibition assay (pNPP); assay type: biochemical
[8] = biological target: T4, MKP3 (Homo sapiens, UniProt Q16828); assay: PTP inhibition assay (pNPP); assay type: biochemical
T4 sequence (Q16828 1-381): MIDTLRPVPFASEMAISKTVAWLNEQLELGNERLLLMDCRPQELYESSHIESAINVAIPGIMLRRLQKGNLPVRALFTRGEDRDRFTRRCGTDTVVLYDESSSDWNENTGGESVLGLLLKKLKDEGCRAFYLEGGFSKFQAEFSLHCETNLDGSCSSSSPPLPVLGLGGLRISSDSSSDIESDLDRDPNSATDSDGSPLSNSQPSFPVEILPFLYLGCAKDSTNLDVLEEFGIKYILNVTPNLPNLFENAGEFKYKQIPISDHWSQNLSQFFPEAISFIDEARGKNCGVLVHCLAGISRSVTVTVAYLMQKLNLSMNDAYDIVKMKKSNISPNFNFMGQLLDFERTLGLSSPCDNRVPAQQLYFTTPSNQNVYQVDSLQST

[9] = biological target: LAR (Homo sapiens, UniProt P10586); assay: PTP inhibition assay (pNPP); assay type: biochemical
[10] = biological target: T5, PTP1B (Homo sapiens, UniProt P18031); assay: PTP inhibition assay (pNPP); assay type: biochemical; details: pNPP at Km, pH 7.0, 25° C.
T5 sequence (P18031 1-435): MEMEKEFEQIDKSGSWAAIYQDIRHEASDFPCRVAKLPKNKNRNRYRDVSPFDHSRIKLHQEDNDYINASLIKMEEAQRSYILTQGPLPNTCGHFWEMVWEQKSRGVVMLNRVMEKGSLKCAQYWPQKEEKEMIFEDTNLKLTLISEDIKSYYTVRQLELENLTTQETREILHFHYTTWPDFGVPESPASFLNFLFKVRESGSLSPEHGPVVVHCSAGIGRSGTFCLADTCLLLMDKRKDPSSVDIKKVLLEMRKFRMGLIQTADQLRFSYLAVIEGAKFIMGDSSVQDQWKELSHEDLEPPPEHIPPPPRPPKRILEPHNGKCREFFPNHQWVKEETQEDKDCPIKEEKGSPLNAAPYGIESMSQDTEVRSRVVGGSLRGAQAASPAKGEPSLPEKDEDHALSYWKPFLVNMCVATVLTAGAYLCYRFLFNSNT

[11] = biological target: T6, PEST (Homo sapiens, UniProt Q05209); assay: PTP inhibition assay (pNPP); assay type: biochemical; details: pNPP at Km, pH 7.0, 25° C.; read-out: IC50 PEST
T6 sequence (Q05209 1-780): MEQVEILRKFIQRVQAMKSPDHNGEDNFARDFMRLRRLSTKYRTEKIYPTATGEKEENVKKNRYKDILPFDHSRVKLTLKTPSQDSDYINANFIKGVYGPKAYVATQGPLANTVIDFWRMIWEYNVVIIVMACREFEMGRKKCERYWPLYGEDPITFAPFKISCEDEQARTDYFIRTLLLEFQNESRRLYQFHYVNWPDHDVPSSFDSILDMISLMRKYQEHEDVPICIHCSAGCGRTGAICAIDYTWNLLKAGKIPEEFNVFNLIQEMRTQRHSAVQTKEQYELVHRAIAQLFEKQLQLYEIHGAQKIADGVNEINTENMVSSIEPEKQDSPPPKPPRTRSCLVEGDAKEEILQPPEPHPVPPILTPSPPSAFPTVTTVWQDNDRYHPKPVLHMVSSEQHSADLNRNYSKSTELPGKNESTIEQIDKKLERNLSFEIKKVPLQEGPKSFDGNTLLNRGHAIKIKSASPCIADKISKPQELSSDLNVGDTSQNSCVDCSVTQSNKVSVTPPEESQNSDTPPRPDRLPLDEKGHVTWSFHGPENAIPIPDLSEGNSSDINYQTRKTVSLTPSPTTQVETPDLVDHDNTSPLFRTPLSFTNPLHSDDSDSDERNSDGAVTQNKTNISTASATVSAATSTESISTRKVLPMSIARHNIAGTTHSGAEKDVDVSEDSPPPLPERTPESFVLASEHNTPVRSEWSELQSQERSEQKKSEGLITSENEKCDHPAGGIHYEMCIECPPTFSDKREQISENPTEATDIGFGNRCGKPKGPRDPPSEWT

[12] = read-out: IC50 VHX (second VHX line of Table 15)

Chain of PTPβ (P23467 23-1997): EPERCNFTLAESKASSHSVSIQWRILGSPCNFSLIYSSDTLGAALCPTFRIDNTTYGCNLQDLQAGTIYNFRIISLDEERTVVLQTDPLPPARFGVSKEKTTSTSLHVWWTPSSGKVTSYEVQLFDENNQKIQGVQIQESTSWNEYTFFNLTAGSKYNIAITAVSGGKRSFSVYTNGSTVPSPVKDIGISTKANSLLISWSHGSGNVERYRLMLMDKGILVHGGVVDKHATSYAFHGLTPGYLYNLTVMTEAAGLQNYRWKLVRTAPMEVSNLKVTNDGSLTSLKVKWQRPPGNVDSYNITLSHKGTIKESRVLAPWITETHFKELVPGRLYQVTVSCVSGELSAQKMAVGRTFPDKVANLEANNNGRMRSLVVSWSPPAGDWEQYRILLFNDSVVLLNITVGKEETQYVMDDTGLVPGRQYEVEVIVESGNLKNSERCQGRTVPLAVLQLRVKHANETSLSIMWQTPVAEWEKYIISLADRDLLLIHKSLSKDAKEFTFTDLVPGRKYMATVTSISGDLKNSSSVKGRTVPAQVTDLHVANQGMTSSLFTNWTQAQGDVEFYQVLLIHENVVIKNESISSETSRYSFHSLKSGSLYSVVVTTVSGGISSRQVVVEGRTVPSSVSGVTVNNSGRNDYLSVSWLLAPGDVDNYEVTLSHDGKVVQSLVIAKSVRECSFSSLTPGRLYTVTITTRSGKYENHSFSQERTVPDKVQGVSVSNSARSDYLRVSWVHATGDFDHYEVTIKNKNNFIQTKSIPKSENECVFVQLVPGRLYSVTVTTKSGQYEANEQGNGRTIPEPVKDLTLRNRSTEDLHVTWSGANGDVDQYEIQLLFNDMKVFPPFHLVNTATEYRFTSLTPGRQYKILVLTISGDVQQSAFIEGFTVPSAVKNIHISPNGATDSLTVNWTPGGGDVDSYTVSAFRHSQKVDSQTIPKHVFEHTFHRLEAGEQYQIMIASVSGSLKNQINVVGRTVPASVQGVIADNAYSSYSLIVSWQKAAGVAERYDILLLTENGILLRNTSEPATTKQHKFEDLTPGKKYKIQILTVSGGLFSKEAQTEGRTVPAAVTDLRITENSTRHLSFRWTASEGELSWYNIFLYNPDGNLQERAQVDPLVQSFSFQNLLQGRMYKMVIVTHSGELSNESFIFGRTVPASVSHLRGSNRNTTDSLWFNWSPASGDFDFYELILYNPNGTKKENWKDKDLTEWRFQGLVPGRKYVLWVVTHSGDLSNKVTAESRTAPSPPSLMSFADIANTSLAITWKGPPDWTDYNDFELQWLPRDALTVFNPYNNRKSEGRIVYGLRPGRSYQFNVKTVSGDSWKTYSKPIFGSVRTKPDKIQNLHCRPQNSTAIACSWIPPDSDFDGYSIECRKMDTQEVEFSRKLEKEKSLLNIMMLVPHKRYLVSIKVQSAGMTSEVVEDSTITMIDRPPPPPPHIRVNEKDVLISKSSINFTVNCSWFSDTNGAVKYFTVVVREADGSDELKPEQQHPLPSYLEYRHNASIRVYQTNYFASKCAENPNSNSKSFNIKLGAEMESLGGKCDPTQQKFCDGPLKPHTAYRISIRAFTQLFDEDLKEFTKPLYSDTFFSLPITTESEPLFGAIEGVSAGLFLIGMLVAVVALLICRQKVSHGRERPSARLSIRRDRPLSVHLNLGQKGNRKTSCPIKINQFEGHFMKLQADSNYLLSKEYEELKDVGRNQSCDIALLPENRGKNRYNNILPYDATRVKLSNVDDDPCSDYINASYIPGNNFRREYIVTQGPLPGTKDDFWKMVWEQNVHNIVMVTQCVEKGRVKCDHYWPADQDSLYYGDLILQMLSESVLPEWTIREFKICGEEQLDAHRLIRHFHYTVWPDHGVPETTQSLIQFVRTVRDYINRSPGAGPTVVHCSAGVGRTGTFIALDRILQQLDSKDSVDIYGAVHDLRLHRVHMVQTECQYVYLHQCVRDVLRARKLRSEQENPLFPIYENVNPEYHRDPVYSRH
Chain of PTPα (P18433 20-802): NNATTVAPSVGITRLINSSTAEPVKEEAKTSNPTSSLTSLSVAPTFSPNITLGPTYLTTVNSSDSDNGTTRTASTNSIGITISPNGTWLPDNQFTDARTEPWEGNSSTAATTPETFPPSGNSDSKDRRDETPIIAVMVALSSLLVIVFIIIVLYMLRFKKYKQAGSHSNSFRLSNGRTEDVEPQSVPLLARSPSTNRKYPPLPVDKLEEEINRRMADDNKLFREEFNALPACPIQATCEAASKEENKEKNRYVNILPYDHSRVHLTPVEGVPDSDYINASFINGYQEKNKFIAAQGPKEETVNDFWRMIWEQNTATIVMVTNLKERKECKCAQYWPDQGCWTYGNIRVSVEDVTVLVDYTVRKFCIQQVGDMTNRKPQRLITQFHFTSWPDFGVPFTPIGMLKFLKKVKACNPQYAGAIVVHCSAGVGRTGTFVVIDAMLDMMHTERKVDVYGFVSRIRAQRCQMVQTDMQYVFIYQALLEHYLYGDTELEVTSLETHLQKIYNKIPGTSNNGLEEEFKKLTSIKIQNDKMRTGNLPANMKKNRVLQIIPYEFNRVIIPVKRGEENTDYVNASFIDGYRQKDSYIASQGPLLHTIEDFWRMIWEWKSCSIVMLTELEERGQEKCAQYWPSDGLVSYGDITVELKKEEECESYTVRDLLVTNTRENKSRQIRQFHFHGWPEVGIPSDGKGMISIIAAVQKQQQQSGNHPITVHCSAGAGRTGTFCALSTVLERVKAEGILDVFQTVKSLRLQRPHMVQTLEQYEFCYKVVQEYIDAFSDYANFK
Chain of TbPTP1 (Q38AT7 entry or part of it): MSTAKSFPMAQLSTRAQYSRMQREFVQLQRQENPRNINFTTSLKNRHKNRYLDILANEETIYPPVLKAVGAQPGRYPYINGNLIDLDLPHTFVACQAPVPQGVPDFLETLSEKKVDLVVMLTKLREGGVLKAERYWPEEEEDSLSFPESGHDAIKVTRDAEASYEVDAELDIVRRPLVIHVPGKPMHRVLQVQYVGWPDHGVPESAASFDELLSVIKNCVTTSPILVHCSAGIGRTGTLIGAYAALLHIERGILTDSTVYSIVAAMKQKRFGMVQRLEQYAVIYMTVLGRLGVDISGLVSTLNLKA
Chain of LAR (P10586 30-1907): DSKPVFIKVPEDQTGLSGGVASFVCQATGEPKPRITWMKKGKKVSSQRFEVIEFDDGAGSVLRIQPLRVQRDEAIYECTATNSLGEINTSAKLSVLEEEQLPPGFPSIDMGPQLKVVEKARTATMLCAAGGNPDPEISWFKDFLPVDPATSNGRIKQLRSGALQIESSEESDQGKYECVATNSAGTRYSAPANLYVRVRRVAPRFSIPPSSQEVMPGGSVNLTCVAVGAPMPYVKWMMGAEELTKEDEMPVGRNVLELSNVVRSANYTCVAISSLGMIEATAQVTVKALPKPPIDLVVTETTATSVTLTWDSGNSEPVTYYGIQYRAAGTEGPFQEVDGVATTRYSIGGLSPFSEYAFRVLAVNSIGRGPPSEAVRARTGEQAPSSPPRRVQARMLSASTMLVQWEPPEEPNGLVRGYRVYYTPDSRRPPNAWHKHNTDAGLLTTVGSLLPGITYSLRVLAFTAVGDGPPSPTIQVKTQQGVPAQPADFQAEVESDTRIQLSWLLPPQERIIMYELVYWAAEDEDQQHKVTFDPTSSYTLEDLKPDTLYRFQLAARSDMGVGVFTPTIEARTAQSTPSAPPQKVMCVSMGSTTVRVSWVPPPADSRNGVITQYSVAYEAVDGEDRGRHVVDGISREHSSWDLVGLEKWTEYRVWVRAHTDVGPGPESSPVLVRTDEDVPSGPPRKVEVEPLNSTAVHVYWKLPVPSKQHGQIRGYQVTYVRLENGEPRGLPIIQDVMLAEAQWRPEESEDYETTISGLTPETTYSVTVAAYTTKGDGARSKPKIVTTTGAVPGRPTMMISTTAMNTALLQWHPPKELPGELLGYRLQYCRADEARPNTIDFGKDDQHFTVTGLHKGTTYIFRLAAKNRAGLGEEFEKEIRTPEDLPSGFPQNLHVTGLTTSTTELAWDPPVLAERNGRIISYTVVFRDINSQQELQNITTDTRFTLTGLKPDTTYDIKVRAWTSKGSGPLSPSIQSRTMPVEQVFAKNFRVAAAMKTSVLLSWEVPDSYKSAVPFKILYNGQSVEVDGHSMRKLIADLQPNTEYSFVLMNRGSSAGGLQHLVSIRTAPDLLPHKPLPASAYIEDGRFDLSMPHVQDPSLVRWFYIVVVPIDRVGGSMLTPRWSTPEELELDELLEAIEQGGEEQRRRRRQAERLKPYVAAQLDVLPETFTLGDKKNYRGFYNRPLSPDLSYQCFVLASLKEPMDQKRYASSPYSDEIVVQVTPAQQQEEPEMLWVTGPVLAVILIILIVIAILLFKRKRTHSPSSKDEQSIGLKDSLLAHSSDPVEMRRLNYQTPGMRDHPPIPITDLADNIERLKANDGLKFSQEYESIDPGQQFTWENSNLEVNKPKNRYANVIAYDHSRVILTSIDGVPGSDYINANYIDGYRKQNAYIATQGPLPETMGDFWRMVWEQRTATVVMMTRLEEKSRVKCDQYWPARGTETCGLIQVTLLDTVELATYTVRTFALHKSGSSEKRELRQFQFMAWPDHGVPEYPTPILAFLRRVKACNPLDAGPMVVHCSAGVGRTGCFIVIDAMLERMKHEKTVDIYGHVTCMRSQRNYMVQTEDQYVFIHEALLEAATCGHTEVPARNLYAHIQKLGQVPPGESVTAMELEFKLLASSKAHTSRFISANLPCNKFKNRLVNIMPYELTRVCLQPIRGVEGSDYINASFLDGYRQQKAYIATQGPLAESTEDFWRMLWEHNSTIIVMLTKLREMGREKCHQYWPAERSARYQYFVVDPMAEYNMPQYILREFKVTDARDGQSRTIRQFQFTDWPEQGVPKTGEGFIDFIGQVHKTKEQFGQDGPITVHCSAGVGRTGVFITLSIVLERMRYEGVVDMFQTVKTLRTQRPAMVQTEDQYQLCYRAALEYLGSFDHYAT

Row | Compound | IC50 ([1]; pNPP at Km, pH 7.0, 25° C.) [µM] | IC50 [2] [µM] | IC50 ([3]; read-out: IC50 VHX) | IC50 [3, 12] [µM] | IC50 [4] [µM] | IC50 [5] [µM] | IC50 [6] | IC50 [7] [µM] | IC50 [8] [µM] | IC50 [9] [µM] | IC50 [10] [µM] | IC50 [11] | IC50 ([1]; pH 7) [µM]
1 | O=C(CS(=O)(=O)O)Nc1nc2ccccc2s1 [Compound L335N15] | 2.1 | > 100 | > 100 µM | > 100 | > 100 | > 100 | > 100 µM | > 100 | > 100 | > 100 | > 100 | > 100 µM | –
2 | O=C(Nc1cnc2ccccc2c1)C(c1ccccc1)S(=O)(=O)O (stereo not drawn) [Compound L319M88] | 6.1 | > 200 | > 200 µM | > 200 | > 200 | > 200 | > 200 µM | > 200 | > 200 | > 200 | > 200 | > 200 µM | 7.3
3 | O=C(Nc1cccc(OCc2ccccc2)c1)C(c1ccccc1)S(=O)(=O)O (stereo not drawn) [Compound L319M52] | 72.3 | > 200 | 170 µM and > 100 µM | – | > 200 | > 200 | 118 µM and > 100 µM | > 200 | > 200 | > 200 | > 200 | 77 µM and 77.4 µM | –
4 | O=C(CS(=O)(=O)O)Nc1cnc2ccccc2c1 | 12 | > 100 | > 100 µM | > 100 | > 100 | > 100 | > 100 µM | > 100 | > 100 | > 100 | > 100 | > 100 µM | –
